Laboratory results published in patent US20100115663A1, “Acetyl-CoA Carboxylase Herbicide Resistant Sorghum” (priority 2007, published 2010).

Key:
[1] = test system: Tx2783, an herbicide susceptible elite sorghum genotype; assay: Greenhouse herbicide spray selection, susceptible check; format: in vivo
Source text: (§1) Seeds of 83 wild sorghum populations from Bolivia were planted in a greenhouse for comparison with Tx2783, an herbicide susceptible elite sorghum genotype. Wild sorghum genotypes were planted in flats containing MetroMix 360 potting soil (Sun Gro) and greenhouse grown. Tx2783 was planted with the wild accessions in each flat for comparison. In one selection using clethodim, plants were sprayed with 0.09 lb ai clethodim acre^−1 at 18 days after planting. […] In one selection using fluazifop-P, flats with Tx2783 and wild accessions were sprayed with a rate of 0.12 lb ai fluazifop-P acre^−1 at 18 days after planting and with 0.36 lb ai fluazifop-P acre^−1 at 32 days after planting. […] In a third experiment, plants were sprayed with a rate of 0.05 lb ai quizalofop acre^−1 at 18 days after planting and with 0.11 lb ai quizalofop acre^−1 at 32 days after planting.

[2] = test system: wild sorghum populations from Bolivia; assay: Greenhouse herbicide spray selection, wild accessions; format: in vivo; conditions: 83 wild populations
Source text: as §1

[3] = test system: Bol-71 wild sorghum genotype; assay: Greenhouse herbicide spray selection, Bol-71; format: in vivo
Source text: as §1

[4] = test system: F1 generation of cross ATx623 x Bol-71; assay: Mode of inheritance greenhouse spray test, F1 hybrid; format: in vivo, sorghum; conditions: 0.045 lb ai fluazifop-P acre^-1 at 14 days after planting; n=3
Experimental: (§2) The mode of inheritance of herbicide tolerance was determined by planting seeds of Bol-71, F1 generation of cross ATx623 x Bol-71, and Pioneer 84G62 (herbicide susceptible control) in flats containing MetroMix 360 potting soil in a greenhouse using a randomized complete block design (n=3). The plants were sprayed with 0.045 lb ai fluazifop-P acre^−1 at 14 days after planting. Pioneer 84G62 died between 12-16 days after spraying.

Bol-71 = assay: Mode of inheritance greenhouse spray test, Bol-71; format: in vivo, wild sorghum; conditions: 0.045 lb ai fluazifop-P acre^-1 at 14 days after planting; n=3
Experimental: as §2

[5] = test system: Pioneer 84G62 (herbicide susceptible control); assay: Mode of inheritance greenhouse spray test, susceptible control; format: in vivo, sorghum; conditions: 0.045 lb ai fluazifop-P acre^-1 at 14 days after planting; n=3
Experimental: as §2

[6] = 0.05 lb ai quizalofop acre^-1 at 18 days and 0.11 lb ai acre^-1 at 32 days after planting
[7] = 0.12 lb ai fluazifop-P acre^-1 at 18 days and 0.36 lb ai acre^-1 at 32 days after planting

| Structure (SMILES) | plant response to spraying [1, 6] | plant response to spraying [2, 6] | tolerance to herbicide [3, 6] | plant response to spraying [1, 7] | plant response to spraying [2, 7] | herbicide damage [4] | herbicide damage (Bol-71) | tolerance to herbicide [3, 7] | time at which plants died [5] |
| --- | --- | --- | --- | --- | --- | --- | --- | --- | --- |
| CC(Oc1ccc(Oc2cnc3cc(Cl)ccc3n2)cc1)C(=O)O (stereo not drawn) [quizalofop] | died | many of the wild sorghums died | high levels of tolerance |  |  |  |  |  |  |
| C[C@@H](Oc1ccc(Oc2ccc(C(F)(F)F)cn2)cc1)C(=O)O [fluazifop-P] |  |  |  | died | many of the wild sorghums died | no herbicide damage | no herbicide damage | high levels of tolerance | 12-16 days after spraying |
